{
  "source": "patent US20260207560A1",
  "about": "“PLURALITY OF GRANULES” (priority 2022, published 2026)",
  "test": "Compatibility of active ingredient with HPMC and gelatin capsule shells (assay, related substances)",
  "assay_type": "physicochemical",
  "settings": "for Assay (%): single vials",
  "experimental": "Binary mixtures of the active ingredient with the capsules shells were made as follows: • An active ingredient doping solution (active ingredient dissolved in ethanol) was made ([…]). A 100 μL aliquot of this doping was used to ‘spike’ the 10 vials of each capsule shell type as described in Table 5. The nominal quantity of active ingredient per vial was therefore 50 μg. • No doping solution was added to the three control vials of the excipient. • The active vials were left open overnight to evaporate all the ethanol, before closing the vials. • Both the active and placebo control vials were placed on stability for up to 28 days at 25° C. and 50° C.",
  "key": {"[1]": {"settings": "Gelatin capsule shell, 50° C., 28 days"}, "[2]": {"settings": "HPMC capsule shell, 25° C., 14 days"}, "[3]": {"settings": "HPMC capsule shell, 25° C., 14 days, listed as active ingredient"}, "[4]": {"settings": "HPMC capsule shell, 25° C., 28 days"}, "[5]": {"settings": "HPMC capsule shell, 25° C., 28 days, listed as active ingredient"}, "[6]": {"settings": "HPMC capsule shell, 50° C., 14 days"}, "[7]": {"settings": "HPMC capsule shell, 50° C., 14 days, listed as active ingredient"}, "[8]": {"settings": "HPMC capsule shell, 50° C., 28 days"}, "[9]": {"settings": "HPMC capsule shell, 50° C., 28 days, listed as active ingredient"}, "[10]": {"settings": "HPMC capsule shell, initial, listed as active ingredient"}, "[11]": {"settings": "Hard Gelatin capsule shell, 25° C., 14 days, listed as active ingredient"}, "[12]": {"settings": "Hard Gelatin capsule shell, 25° C., 28 days, listed as active ingredient"}, "[13]": {"settings": "Hard Gelatin capsule shell, 50° C., 14 days"}},
  "note": "“And” between values parts separate entries of the source, which are not always exact repeats. Equal values may be shown once. Marks after values point to notes of the source that are not given here.",
  "data": [
    {"smiles": "CCS(=O)(=O)Nc1ccc2c(c1)nc(C(C)(C)C)n2CC1CCC(F)(F)CC1", "note": "[Compound I, N-(2-(tert-butyl)-1-((4,4-difluorocyclohexyl)methyl)-1H-benzimidazol-5-yl)ethanesulfonamide]", "values": [
      {"measurement": "Assay (%), mean", "setting": "Gelatin capsule shell, 25° C., 14 days", "value": 98.1, "unit": "%"},
      {"measurement": "Assay (%)", "setting": "Gelatin capsule shell, 25° C., 14 days, listed as active ingredient", "value": "98.9% and 97.4%"},
      {"measurement": "Assay (%), mean", "setting": "Gelatin capsule shell, 25° C., 28 days", "value": 99.1, "unit": "%"},
      {"measurement": "Assay (%)", "setting": "Gelatin capsule shell, 25° C., 28 days, listed as active ingredient", "value": "98.8% and 99.4%"},
      {"measurement": "Assay (%), mean", "setting": "Gelatin capsule shell, 50° C., 14 days", "value": 99.3, "unit": "%"},
      {"measurement": "Assay (%)", "setting": "Gelatin capsule shell, 50° C., 14 days, listed as active ingredient", "value": "99.3% and 99.4%"},
      {"measurement": "Assay (%), mean", "setting": "[1]", "value": 89.3, "unit": "%"},
      {"measurement": "Assay (%)", "setting": "[1]", "value": 99.4, "unit": "%"},
      {"measurement": "Assay (%), mean", "setting": "Gelatin capsule shell, initial", "value": 99.6, "unit": "%"},
      {"measurement": "Assay (%)", "setting": "Gelatin capsule shell, initial, listed as active ingredient", "value": "99.0% and 100.2%"},
      {"measurement": "Assay (%), mean", "setting": "[2]", "value": 95.8, "unit": "%"},
      {"measurement": "Related substance RRT 1.04", "setting": "[2]", "value": 0.08, "unit": "%"},
      {"measurement": "Related substance RRT 1.10", "setting": "[2]", "value": 0.09, "unit": "%"},
      {"measurement": "Related substance RRT 0.92", "setting": "[3]", "value": "0.08% and 0.07%"},
      {"measurement": "Related substance RRT 0.98", "setting": "[3]", "value": "0.31% and 0.32%"},
      {"measurement": "Related substance RRT 1.35", "setting": "[3]", "value": "0.13% and 0.12%"},
      {"measurement": "Related substance RRT 1.36", "setting": "[3]", "value": "0.13% and 0.12%"},
      {"measurement": "Related substances total", "setting": "[3]", "value": "0.82% and 0.80%"},
      {"measurement": "Assay (%)", "setting": "[2]", "value": 98.9, "unit": "%"},
      {"measurement": "Assay (%), mean", "setting": "[4]", "value": 99.1, "unit": "%"},
      {"measurement": "Related substance RRT 0.92", "setting": "[4]", "value": 0.08, "unit": "%"},
      {"measurement": "Related substance RRT 1.04", "setting": "[4]", "value": 0.07, "unit": "%"},
      {"measurement": "Related substances total", "setting": "[4]", "value": 0.79, "unit": "%"},
      {"measurement": "Related substance RRT 0.98", "setting": "[5]", "value": "0.3% and 0.31%"},
      {"measurement": "Related substance RRT 1.10", "setting": "[5]", "value": "0.09% and 0.08%"},
      {"measurement": "Related substance RRT 1.35", "setting": "[5]", "value": "0.12% and 0.13%"},
      {"measurement": "Related substance RRT 1.36", "setting": "[5]", "value": "0.12% and 0.13%"},
      {"measurement": "Assay (%)", "setting": "[5]", "value": "99.3% and 99.0%"},
      {"measurement": "Assay (%), mean", "setting": "[6]", "value": 98.8, "unit": "%"},
      {"measurement": "Related substance RRT 0.97", "setting": "[6]", "value": "0.67* %"},
      {"measurement": "Related substance RRT 1.04", "setting": "[6]", "value": 0.07, "unit": "%"},
      {"measurement": "Related substance RRT 1.10", "setting": "[6]", "value": 0.09, "unit": "%"},
      {"measurement": "Related substance RRT 1.36", "setting": "[6]", "value": 0.12, "unit": "%"},
      {"measurement": "Related substance RRT 0.92", "setting": "[7]", "value": "0.07% and <0.05%"},
      {"measurement": "Related substance RRT 0.98", "setting": "[7]", "value": "0.30% and 0.29%"},
      {"measurement": "Related substance RRT 1.35", "setting": "[7]", "value": "0.13% and 0.12%"},
      {"measurement": "Related substances total", "setting": "[7]", "value": "0.79% and 1.37%"},
      {"measurement": "Assay (%)", "setting": "[7]", "value": "98.9% and 98.7%"},
      {"measurement": "Assay (%), mean", "setting": "[8]", "value": 98.9, "unit": "%"},
      {"measurement": "Related substance RRT 0.92", "setting": "[8]", "value": 0.07, "unit": "%"},
      {"measurement": "Related substance RRT 1.35", "setting": "[8]", "value": 0.12, "unit": "%"},
      {"measurement": "Related substance RRT 0.98", "setting": "[9]", "value": "0.31% and 0.32%"},
      {"measurement": "Related substance RRT 1.04", "setting": "[9]", "value": "0.07% and 0.09%"},
      {"measurement": "Related substance RRT 1.10", "setting": "[9]", "value": "0.09% and 0.10%"},
      {"measurement": "Related substance RRT 1.36", "setting": "[9]", "value": "0.12% and 0.13%"},
      {"measurement": "Related substances total", "setting": "[9]", "value": "0.79% and 0.83%"},
      {"measurement": "Assay (%)", "setting": "[9]", "value": "98.8% and 98.9%"},
      {"measurement": "Assay (%), mean", "setting": "HPMC capsule shell, initial", "value": 97.8, "unit": "%"},
      {"measurement": "Related substance RRT 1.04", "setting": "HPMC capsule shell, initial", "value": 0.07, "unit": "%"},
      {"measurement": "Related substance RRT 1.35", "setting": "HPMC capsule shell, initial", "value": 0.13, "unit": "%"},
      {"measurement": "Related substance RRT 1.36", "setting": "HPMC capsule shell, initial", "value": 0.13, "unit": "%"},
      {"measurement": "Related substance RRT 0.92", "setting": "[10]", "value": "0.08% and 0.07%"},
      {"measurement": "Related substance RRT 0.98", "setting": "[10]", "value": "0.3% and 0.31%"},
      {"measurement": "Related substance RRT 1.10", "setting": "[10]", "value": "0.09% and 0.10%"},
      {"measurement": "Related substances total", "setting": "[10]", "value": "0.81% and 0.82%"},
      {"measurement": "Assay (%)", "setting": "[10]", "value": "96.5% and 99.0%"},
      {"measurement": "Degradation of the active ingredient (from % assay)", "setting": "HPMC or gelatin capsules, all conditions and timepoints", "value": "no degradation"},
      {"measurement": "Related substance RRT 1.35", "setting": "Hard Gelatin capsule shell, 25° C., 14 days", "value": 0.07, "unit": "%"},
      {"measurement": "Related substance RRT 0.92", "setting": "[11]", "value": "0.05% and <0.05%"},
      {"measurement": "Related substance RRT 0.98", "setting": "[11]", "value": "0.22% and 0.18%"},
      {"measurement": "Related substance RRT 1.04", "setting": "[11]", "value": "0.05% and <0.05%"},
      {"measurement": "Related substance RRT 1.10", "setting": "[11]", "value": "0.10% and 0.09%"},
      {"measurement": "Related substance RRT 1.36", "setting": "[11]", "value": "0.07% and 0.08%"},
      {"measurement": "Related substances total", "setting": "[11]", "value": "0.56% and 0.42%"},
      {"measurement": "Related substance RRT 1.04", "setting": "Hard Gelatin capsule shell, 25° C., 28 days", "value": "<0.05", "unit": "%"},
      {"measurement": "Related substance RRT 0.92", "setting": "[12]", "value": "0.05% and <0.05%"},
      {"measurement": "Related substance RRT 0.98", "setting": "[12]", "value": "0.18% and 0.14%"},
      {"measurement": "Related substance RRT 1.10", "setting": "[12]", "value": "0.08% and 0.09%"},
      {"measurement": "Related substance RRT 1.35", "setting": "[12]", "value": "0.07% and 0.06%"},
      {"measurement": "Related substance RRT 1.36", "setting": "[12]", "value": "0.08% and 0.07%"},
      {"measurement": "Related substances total", "setting": "[12]", "value": "0.47% and 0.36%"},
      {"measurement": "Related substance RRT 0.92", "setting": "[13]", "value": "<0.05", "unit": "%"},
      {"measurement": "Related substance RRT 1.04", "setting": "[13]", "value": "<0.05", "unit": "%"},
      {"measurement": "Related substance RRT 1.10", "setting": "[13]", "value": 0.09, "unit": "%"},
      {"measurement": "Related substance RRT 1.35", "setting": "[13]", "value": 0.06, "unit": "%"},
      {"measurement": "Related substance RRT 1.36", "setting": "[13]", "value": 0.07, "unit": "%"},
      {"measurement": "Related substance RRT 0.98", "setting": "Hard Gelatin capsule shell, 50° C., 14 days, listed as active ingredient", "value": "0.14% and 0.12%"}
    ]}
  ]
}
